These are literature values, as cited in US10835585B2, “Shared neoantigens” (priority 2015, dated 2020).

Where only a bound is given, the exact number is not on record here.

Data set [1] has as its system serum prostate specific antigen (PSA). To be noted: advanced hormone refractory prostate cancer; personalized vaccination combined with a low dose of estramustine.
For data set [2] the following is noted: more than 25 clinical trials.
For a further data set, the system named is healthy human volunteers. To be noted: 8 healthy volunteers, one single s.c. administration, versus 4 placebo subjects; whole blood.
In data set [3] the test system is ovarian carcinoma patients.

Consider `C[C@]12CC[C@@H]3c4ccc(OC(=O)N(CCCl)CCCl)cc4CC[C@H]3[C@@H]1CC[C@@H]2O` [estramustine], for which, in data set [1], the “patients with ≥50% decrease in serum prostate specific antigen (PSA)” value is listed as 54%.

For the compound “Polyinosinic-Polycytidylic Acid-poly-L-lysine Carboxymethylcellulose [poly-ICLC]”, in data set [2], the toxicity profile result is on record as “relatively benign toxicity profile”. The “differential expression of genes versus placebo” value in the data set on healthy human volunteers is “up to 212 genes”. Also, in data set [3] (1.4 mg poly-ICLC and Montanide added to OLP, compared to OLP alone or OLP and Montanide, s.c.), the “generation of NY-ESO-1-specific CD4+ and CD8+ T-cell and antibody responses” value is listed as “markedly enhanced”. The “patients showing induction of CD4+ and CD8+ T cell, as well as antibody responses to the peptide” value in data set [3] (ovarian carcinoma patients, poly-ICLC with NY-ESO-1 peptide vaccine and Montanide, phase 1) is on record as greater than 90%.
